Drawing on ChEMBL document CHEMBL5725965, “Isoxazole derivatives as FXR agonists and methods of use thereof” (2018), this text covers EC50 for one compound.

This assay has as its target T1, Bile acid receptor (Homo sapiens, UniProt Q96RI1).
T1 sequence (Q96RI1 whole entry): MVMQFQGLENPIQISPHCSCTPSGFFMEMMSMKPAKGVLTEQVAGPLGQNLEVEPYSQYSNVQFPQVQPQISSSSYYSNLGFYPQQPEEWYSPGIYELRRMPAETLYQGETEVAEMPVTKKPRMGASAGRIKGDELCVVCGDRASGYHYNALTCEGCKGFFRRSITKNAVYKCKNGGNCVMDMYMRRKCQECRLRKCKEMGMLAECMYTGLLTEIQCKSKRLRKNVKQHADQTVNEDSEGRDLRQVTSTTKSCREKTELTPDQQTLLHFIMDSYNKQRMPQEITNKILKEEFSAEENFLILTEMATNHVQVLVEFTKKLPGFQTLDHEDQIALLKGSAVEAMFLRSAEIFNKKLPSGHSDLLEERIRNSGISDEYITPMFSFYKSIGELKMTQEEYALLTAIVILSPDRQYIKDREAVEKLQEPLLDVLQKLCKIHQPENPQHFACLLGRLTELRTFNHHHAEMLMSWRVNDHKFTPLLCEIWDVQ
In words: FXR Reporter Assay kit purchased from Indigo Bioscience (Catalogue number: IB00601) to determine the potency and efficacy of compound developed by Enanta that can induce FXR activation. The principle application of this reporter assay system is to quantify functional activity of human FXR. The assay utilizes non-human mammalian cells, CHO (Chinese hamster ovary) cells engineered to express human NR1H4 protein (referred to as FXR). Reporter cells also incorporate the cDNA encoding beetle luciferase which catalyzes the substrates and yields photon emission. Luminescence intensity of the reaction is quantified using a plate-reading luminometer, Envision. Reporter Cells include the luciferase reporter gene functionally linked to an FXR responsive promoter. Thus, quantifying changes in luciferase expression in the treated reporter cells provides a sensitive surrogate measure of the changes in FXR activity. […] The assay is according to the manufacturer's instructions. In brief, the assay was performed in white, 96 well plates using final volume of 100 μl containing cells with different doses of compounds. Retrieve Reporter Cells from −80° C. storage. Perform a rapid thaw of the frozen cells by transferring a 10 ml volume of 37° C. cell recovery medium into the tube of frozen cells. Recap the tube of Reporter Cells and immediately place it in a 37° C. water bath for 5-10 minutes. […]. Type of assay: cell-based.

pEC50: −log10 of the molar value.

In general, pEC50 refers to −log10 of the EC50, conventionally taken in molar units. In turn, `CN(C)S(=O)(=O)NC(=O)c1ccc2nc(N3C4CC[C@H]3C[C@H](OCc3c(-c5c(Cl)cccc5Cl)noc3C3CC3)C4)sc2c1` had a pEC50 of more than 7.00.
